Test results: paper PMC12580772, “A First-in-Human Study of ATM Inhibitor Lartesertib as Monotherapy in Patients with Advanced Solid Tumors” (Clinical Cancer Research, 2025)
“Also recorded” adds a separate entry of the source.

Legend:
[1] = PK analysis of lartesertib in plasma (non-compartmental); assay type: in vivo, human
Procedure: The PK of lartesertib was characterized during dose escalation using an intensive PK sample collection schedule. Blood samples were collected at multiple timepoints during Cycle 1, including on Day 1 (pre-dose at 0 hours and post-dose at 0.5, 1, 2, 3, 4, 6, 8, and 12 hours) and Day 8 (pre-dose at 0 hours and post-dose at 1, 2, 3, 4, 6, 8, and 12 hours). PK parameters were calculated from individual plasma concentration–time data using non-compartmental methods.

[2] = test system: acute myeloid leukemia model Mv4.11; parameters: method as in PMID 37079339; conditions: combination with the ATR inhibitor gartisertib; cited from earlier work
[3] = test system: immune cell subsets and circulating immune factors; assay: Immunophenotyping by flow cytometry and circulating immune factors; assay type: in vivo, human
Procedure: Serial blood samples collected at each visit were tested for total blood cell counts and immune cell subsets (e.g., T cells, B cells, and NK cells) to evaluate immunophenotyping by flow cytometry.
Circulating immune factors (e.g., IFN-β, IFN-γ, IL-1β, IL-2, IL-4, IL-6, IL-8, IL-10, IL-12p70, IL-13, TNF-α, and NKG2DL) were assessed using immunofluorescence assays. Additionally, blood samples were tested for plasma ctDNA by next-generation sequencing at Guardant Health using the OMNI panel. This analysis was conducted to evaluate surrogate markers of tumor dynamics, sensitivity, and resistance to treatment. Molecular response (MR) was assessed and defined as strongest change of—per visit averaged—somatic variant allele frequency (VAF) against the pretreatment level as follows: Best delta mean VAF = MIN (meanVAFvisiti – meanVAFpretreatment / meanVAFpretreatment)

[4] = test system: HBC-x9 triple-negative breast cancer model; parameters: method as in PMID 35405736; conditions: combined with PARP inhibitors (rucaparib or niraparib), wild-type BRCA1/2; cited from earlier work
[5] = test system: patient-derived xenograft models of triple-negative breast cancer; parameters: method as in PMID 37079339; conditions: lartesertib in combination with gartisertib; cited from earlier work
γ-H2AX = assay: PD analysis: γ-H2AX in CD45+ lymphocytes after ex vivo bleomycin stimulation, flow cytometry; parameters: species or system human; conditions: 2, 4, 6 hours on Day 1, sustained Day 2 at 2 to 4 hours, all four DLs
Procedure: The PD analyses in blood were conducted using samples collected during Cycle 1 at the following time points: Day 1, pre-dose, and post-dose at 2, 4, and 6 hours; Day 2 at pre-dose and post-dose at 2 to 4 hours; and Day 22 at pre-dose and post-dose at 2 and 4 hours. These samples were analyzed to assess levels of the PD biomarker, γ-H2AX, a phosphorylated histone variant known to represent an early and sensitive marker of DSB response ([18]). Each sample was stimulated ex vivo with bleomycin, a DNA DSB inducer that activates ATM function, or with phosphate-buffered saline as a negative control. γ-H2AX was subsequently measured in the CD45^+ lymphocyte fraction by flow cytometry.

COc1cc2ncc3c(c2cc1-c1cn(C)nc1C)n(-c1c(F)cncc1OC)c(=O)n3C [lartesertib]
Exposure versus dose ([1]; 100-400 mg once daily): increased in a dose-related manner; also recorded: increased in a dose-dependent manner | half-life ([1]; human, plasma, oral, across 100-400 mg once daily, Day 1 and Day 8, read-out: Geometric mean elimination half-life (t1/2)): 5 to 7 h | Tmax ([1]; human, plasma, oral, across 100-400 mg once daily, Day 1 and Day 8, read-out: Median time to reach maximum observed plasma concentration (tmax)): 1 to 2 h | Tumor growth [2]: almost complete tumor regression | NK cell subsets ([3]; across all DLs): negative trend | Cytokine modulation (IFN-γ, IL-10, IL-6, IL-8, and TNF-α) ([3]; among different DLs): No relevant trends | Levels of most explored immune cell subsets ([3]; tested DLs, incl. myeloid-derived suppressor cells, T and B lymphocytes): did not cause any significant change | Efficacy and tolerability [4]: enhanced efficacy and acceptable tolerability | Tumor control rate [5]: 42% | γ-H2AX target inhibition over time (γ-H2AX): trend of increasing lartesertib target inhibition
